Reference: US11912682B2, “Isoindolinone compounds” (Monte Rosa Therapeutics, Inc., priority 2021, dated 2024)
Like-named read-outs stand apart in the source and are kept apart here.

Tests used:
CK1alpha = CK1alpha (Homo sapiens (Human), UniProt P48729); test: selectivity by Western blot in MM1S cells, CK1alpha; format: cell-based; design: key to CK1alpha degradation: A represents a no degradation observed at 30 μM; B represents trace degradation at 30 μM (below 20%); C represents weak degradation at 30 μM (below 50%); D represents degradation at 30 μM (>90%); E represents degradation at 3 μM (>90%); F represents degradation at 0.3 μM (>90%); details: for CK1alpha degradation: MM1S cells, 6 hours, 0.3, 3 and 30 μM
Protocol: MM1S cells were purchased from ATCC (cat. Number CRL-2974), sub-cultured in 90% RPMI 1640 with 10% FBS, supplemented with 1× P/S and incubated at 37° C., 5% CO2. Compounds were stored as 10 mM DMSO stock. For the assay, MM1S cells (3 million cells/well) were plated in 6-well plates and incubated over night. Cells were treated with respective compounds using a serial dilution: 0.3 μM, 3 μM and 30 μM as well as a vehicle only (DMSO) control for 6 hours. Media with suspension cells was subsequently transferred to 15 mL conical tubes, wells rinsed twice with ice-cold PBS and merged with cell suspension in respective 15 mL conical tube. Cells were spinned down, supernatant aspirated, pellets resuspended in ice-cold PBS and transferred to microtubes. Cells were spinned down, supernatant aspirated and pellets resuspended in 120 μL RIPA lysis buffer supplemented with protease and phosphatase inhibitors. Cell lysates were incubated on ice for 20 minutes followed by centrifugation at >20,000 xg for 5 min. Supernatants were transferred to fresh microtubes and stored at −80° C. Total protein concentration was determined using a BCA assay with a BSA standard curve and concentration of all samples was adjusted to 1 mg/mL. 25 μL 4× LDS sample buffer supplemented with 100 mM DTT was added to 75 μL sample. Samples were centrifuged (8,000 xg, 1 min) and incubated at 95° C. for 5 min followed by another centrifugation step (8,000 xg, 1 min). 20 μL of each sample was loaded on a 4-12% gel alongside a protein molecular weight marker. Gels were run in the presence of MOPS buffer at 80 Volts for 30 min, followed by 120 Volts for 1.5 h and proteins subsequently transferred onto nitrocellulose membranes at 20 Volts for 7 min using an iBlot2 Gel Transfer Device. Membranes were then cut horizontally into two pieces, covering 80-50 kDa and 50-25 kDa. Blocking the membranes was performed by gently shaking in 5% (w/v) skim milk in TSB-T for 1 hr at room temperature. All primary antibodies were used at a 1/1000 in 5% (w/v) BSA dissolved in TBST and incubated with membranes over night at 4° C. Anti-IKZF1 (Ikaros; D6N9Y; 14859S), anti-IKZF3 (Aiolos; D1C1E; 15103S) antibodies were purchased from Cell Signalling Technology, anti-ZFP91 antibody from Bethyl laboratories, anti-GSPT1 from Sigma Aldrich (HPA052488) and anti CK1alpha from AbCam (ab206652). After three washes with 1× TBST for 5 min, HRP-coupled secondary antibodies diluted in 5% (w/v) BSA/TBST (Goat Anti-Rb IgG, dil. 1/10,000; Goat Anti-Mouse IgG, dil. 1/5000) were added for 1 hr at room temperature. After three washes with 1× TBST (5 minutes each), membranes were incubated with ECL reagent for 1 min at room temperature. Chemiluminescence signals were then detected using a LAS-4000 system with default settings and signals quantified using Image Studio Lite software (version 5.2). Membrane parts previously incubated with antibody against CK1alpha were stripped off antibodies by incubating with stripping buffer for 30 minutes followed by three washed with TBST (5 min each), blocking with 5% (w/v) skim milk for 1 hr, and incubation with primary antibody against GAPDH overnight at 4° C. Subsequent washes, incubation with secondary antibody and signal acquisition were performed as described above.

GSPT1 [1] = target: T1, GSPT1 (Homo sapiens (Human), UniProt P15170+Q96SW2); test: immunofluorescence assay for GSPT1 degradation in CAL-51 cells (Example 4); format: cell-based
Procedure, shortened: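 CAL-51 cells on fibronectin-coated plates were treated 6 h with serial dilutions (30 μM to 0.1 nM), then fixed and immunostained for GSPT1 with DAPI and phalloidin counterstains. Per-cell mean GSPT1 intensity from high-content imaging, normalized to controls; DC50 by non-linear regression.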
Target sequence in this assay (P15170 whole entry): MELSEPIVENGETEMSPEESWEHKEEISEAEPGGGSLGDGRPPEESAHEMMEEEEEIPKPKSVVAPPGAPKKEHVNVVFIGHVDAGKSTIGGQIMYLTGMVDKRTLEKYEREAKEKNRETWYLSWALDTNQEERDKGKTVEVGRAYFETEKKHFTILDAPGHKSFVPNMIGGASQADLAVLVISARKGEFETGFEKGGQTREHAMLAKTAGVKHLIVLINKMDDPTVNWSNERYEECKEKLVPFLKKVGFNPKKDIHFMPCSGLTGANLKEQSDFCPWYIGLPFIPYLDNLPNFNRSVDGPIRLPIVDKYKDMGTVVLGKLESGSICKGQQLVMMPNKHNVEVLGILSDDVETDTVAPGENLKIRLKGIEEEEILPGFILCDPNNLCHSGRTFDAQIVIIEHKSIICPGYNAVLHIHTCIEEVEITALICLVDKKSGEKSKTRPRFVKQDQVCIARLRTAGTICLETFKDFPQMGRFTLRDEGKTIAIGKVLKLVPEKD
Target sequence in this assay (Q96SW2 whole entry): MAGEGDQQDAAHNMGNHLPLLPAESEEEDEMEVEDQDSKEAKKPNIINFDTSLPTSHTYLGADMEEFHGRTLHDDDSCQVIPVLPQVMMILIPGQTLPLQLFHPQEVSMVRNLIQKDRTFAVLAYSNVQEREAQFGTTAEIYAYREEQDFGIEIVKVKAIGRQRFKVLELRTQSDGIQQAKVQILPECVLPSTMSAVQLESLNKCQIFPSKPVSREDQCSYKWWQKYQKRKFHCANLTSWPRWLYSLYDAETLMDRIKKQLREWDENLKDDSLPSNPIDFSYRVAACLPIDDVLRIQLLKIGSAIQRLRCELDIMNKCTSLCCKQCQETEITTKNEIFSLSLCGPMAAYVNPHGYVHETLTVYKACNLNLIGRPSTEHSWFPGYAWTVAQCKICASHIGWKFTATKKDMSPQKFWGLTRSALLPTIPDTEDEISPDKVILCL
Target sequence in this assay (Q16531 2-1140 partner): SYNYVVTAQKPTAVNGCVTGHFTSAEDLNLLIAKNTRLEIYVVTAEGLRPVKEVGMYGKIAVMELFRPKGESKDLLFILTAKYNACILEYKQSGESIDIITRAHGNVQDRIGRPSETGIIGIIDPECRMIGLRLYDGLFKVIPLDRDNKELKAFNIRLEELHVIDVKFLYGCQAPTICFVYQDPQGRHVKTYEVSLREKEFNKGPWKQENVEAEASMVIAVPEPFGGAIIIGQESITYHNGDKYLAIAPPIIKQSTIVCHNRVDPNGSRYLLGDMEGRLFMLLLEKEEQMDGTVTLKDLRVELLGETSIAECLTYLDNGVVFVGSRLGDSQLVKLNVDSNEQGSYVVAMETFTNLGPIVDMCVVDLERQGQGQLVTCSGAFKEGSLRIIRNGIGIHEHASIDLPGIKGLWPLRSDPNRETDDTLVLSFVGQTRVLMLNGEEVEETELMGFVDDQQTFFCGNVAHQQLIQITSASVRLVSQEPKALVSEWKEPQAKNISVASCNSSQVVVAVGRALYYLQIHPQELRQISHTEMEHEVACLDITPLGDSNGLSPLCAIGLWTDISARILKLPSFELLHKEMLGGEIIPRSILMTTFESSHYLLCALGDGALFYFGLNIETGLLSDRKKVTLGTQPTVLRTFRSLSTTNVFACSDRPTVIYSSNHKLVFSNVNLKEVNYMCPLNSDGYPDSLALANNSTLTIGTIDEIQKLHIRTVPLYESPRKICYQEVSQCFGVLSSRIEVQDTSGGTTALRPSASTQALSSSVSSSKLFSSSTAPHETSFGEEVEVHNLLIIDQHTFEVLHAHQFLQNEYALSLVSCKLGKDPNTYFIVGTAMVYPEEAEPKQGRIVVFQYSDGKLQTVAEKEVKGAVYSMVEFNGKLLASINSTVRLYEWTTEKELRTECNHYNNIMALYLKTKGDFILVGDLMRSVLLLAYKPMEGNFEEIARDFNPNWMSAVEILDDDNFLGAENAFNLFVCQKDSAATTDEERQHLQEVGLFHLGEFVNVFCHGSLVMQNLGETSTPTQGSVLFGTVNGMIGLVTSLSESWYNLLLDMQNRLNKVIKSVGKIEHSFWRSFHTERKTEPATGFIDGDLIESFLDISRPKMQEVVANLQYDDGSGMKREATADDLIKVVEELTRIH

GSPT1 [2] = target: T1, GSPT1; test: Mass spectrometry-based proteomics analysis of a treated cancer cell line (FIG. 1B); details: cancer cell line treated with compound; fold-change (log2) vs p-value
Target sequence in this assay (P15170 whole entry, looked up): as the sequence (P15170 whole entry) above
Target sequence in this assay (Q96SW2 whole entry, looked up): as the sequence (Q96SW2 whole entry) above
Target sequence in this assay (Q16531 whole entry partner, looked up): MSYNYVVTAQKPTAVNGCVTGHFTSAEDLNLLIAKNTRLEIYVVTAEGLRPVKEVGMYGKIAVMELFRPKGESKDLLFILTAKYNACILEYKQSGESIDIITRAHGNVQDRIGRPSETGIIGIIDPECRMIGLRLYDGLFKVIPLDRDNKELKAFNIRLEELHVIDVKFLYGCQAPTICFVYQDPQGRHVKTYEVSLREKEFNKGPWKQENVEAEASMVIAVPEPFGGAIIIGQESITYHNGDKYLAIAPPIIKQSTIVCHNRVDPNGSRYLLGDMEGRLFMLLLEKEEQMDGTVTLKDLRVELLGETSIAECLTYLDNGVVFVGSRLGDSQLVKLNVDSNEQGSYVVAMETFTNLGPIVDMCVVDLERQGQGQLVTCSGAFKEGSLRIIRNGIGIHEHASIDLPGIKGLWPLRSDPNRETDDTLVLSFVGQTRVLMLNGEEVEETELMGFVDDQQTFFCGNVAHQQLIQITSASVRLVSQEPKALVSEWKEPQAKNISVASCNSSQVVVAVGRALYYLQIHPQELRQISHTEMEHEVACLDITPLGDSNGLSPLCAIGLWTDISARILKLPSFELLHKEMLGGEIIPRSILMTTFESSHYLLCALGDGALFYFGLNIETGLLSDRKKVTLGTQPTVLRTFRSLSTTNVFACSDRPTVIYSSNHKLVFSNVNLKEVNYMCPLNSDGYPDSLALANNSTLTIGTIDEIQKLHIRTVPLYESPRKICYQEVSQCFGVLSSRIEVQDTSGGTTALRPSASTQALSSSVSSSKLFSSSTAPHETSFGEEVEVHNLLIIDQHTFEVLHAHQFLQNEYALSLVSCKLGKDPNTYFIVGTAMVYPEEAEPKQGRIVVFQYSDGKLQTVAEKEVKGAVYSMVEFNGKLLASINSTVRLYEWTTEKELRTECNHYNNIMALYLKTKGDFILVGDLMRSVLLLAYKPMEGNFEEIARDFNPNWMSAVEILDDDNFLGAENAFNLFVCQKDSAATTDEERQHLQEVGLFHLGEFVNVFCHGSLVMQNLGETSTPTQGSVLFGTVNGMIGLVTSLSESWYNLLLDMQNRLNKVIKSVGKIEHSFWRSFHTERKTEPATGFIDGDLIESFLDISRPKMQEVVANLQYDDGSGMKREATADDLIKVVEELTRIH

[3] = 6 hours, read-out: Activity for GSPT1 degradation, Code (DC50)
[4] = GSPT1 degradation, read-out: DC50 value

CK1alpha, sequence (P48729 whole entry, looked up): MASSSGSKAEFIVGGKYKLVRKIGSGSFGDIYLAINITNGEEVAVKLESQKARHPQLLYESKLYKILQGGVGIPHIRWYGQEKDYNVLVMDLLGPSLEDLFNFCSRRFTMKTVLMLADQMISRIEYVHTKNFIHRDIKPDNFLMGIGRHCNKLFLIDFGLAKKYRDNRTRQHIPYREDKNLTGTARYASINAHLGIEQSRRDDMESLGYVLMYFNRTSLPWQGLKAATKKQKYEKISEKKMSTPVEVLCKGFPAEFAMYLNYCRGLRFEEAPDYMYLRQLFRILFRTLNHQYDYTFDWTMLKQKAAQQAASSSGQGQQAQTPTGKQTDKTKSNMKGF

Structure (SMILES)	DC50 (GSPT1 [1]; [3])	DC50 (GSPT1 [1]; [4])	CK1alpha degradation (CK1alpha)	GSPT1 protein change in proteomics analysis (GSPT1 [2])	CK1alpha degradation (FIG. 1A) (CK1alpha; highest concentration tested of 30 μM)
Cc1ccc(NC(=O)OCc2ccc3c(c2)C(=O)N(C2CCC(=O)NC2=O)C3)cc1Cl (centres unmarked) [Compound 10]	< 30 nM	≤ 30 nM	B (B represents trace degradation at 30 μM (below 20%))	most statistically significant downregulated protein	none of the known the substrates IKZF1, IKZF3, SALL4, CK1alpha was degraded
O=C1CCC(N2Cc3ccc(COC(=O)Nc4ccc(N5CCCCC5)nc4)cc3C2=O)C(=O)N1 (centres unmarked) [Compound 15]	< 30 nM	≤ 30 nM	C (C represents weak degradation at 30 μM (below 50%))		

Now from value to compound, other results behind:

DC50 (GSPT1 [1]; [3])	DC50 (GSPT1 [1]; [4])	Structure (SMILES)	CK1alpha degradation (CK1alpha)	GSPT1 protein change in proteomics analysis (GSPT1 [2])	CK1alpha degradation (FIG. 1A) (CK1alpha; highest concentration tested of 30 μM)
< 30 nM	≤ 30 nM	Cc1ncc(NC(=O)OCc2ccc3c(c2)C(=O)N(C2CCC(=O)NC2=O)C3)cc1Cl (centres unmarked) [Compound 6]	A		
< 30 nM	≤ 30 nM	O=C1CCC(N2Cc3ccc(COC(=O)Nc4ccc(-c5ccccc5)nc4)cc3C2=O)C(=O)N1 (centres unmarked) [Compound 42]	B (B represents trace degradation at 30 μM (below 20%))		
< 30 nM	≤ 30 nM	CC(C)(C)c1ccc(NC(=O)OCc2ccc3c(c2)C(=O)N(C2CCC(=O)NC2=O)C3)cn1 (centres unmarked) [Compound 43]	C (C represents weak degradation at 30 μM (below 50%))		
